Test results reported in patent US11331375B2, “Compositions and methods for regulating leukocyte adhesion” (University of Virginia Patent Foundation, priority 2015, dated 2022).

Experiments:
VCAM1 = VCAM1 expression in isolated mesenteric venules; assay type: cell-based, mouse; settings: EC Panx1 KO venules, TNFα 50 ng/mL, exogenous ATP
Protocol: Male VECadER^T2+/Panx1^fl/fl mice (Tamoxifen or Peanut oil injected) were euthanized by CO2 asphyxiation and subsequent cervical dislocation. Prior to tissue harvesting, fixation was performed by perfusing room temperature 4% paraformaldehyde (PFA) made in PBS through the heart. The mesentery was immediately excised and 2nd order venules were dissected free of surrounding fat and connective tissue and place in 4% PFA for 30 minutes before transfer to 70% ethanol for paraffin embedding. Paraffin sections (4-5 μm in thickness) were de-paraffinized and processed for immunocytochemistry as previously described^10. […]
Following stimulation with TNFα (in vitro: 10 ng/mL; ex vivo: 50 ng/mL), confluent endothelial cell monolayers or isolated mesenteric venules were homogenized in ice cold Triton extraction buffer (50 mM Tris-HCL, 150 mM NaCl , 5 mM EDTA, 1% deoxycholate, 1% NP-40 and 1% Triton-X100 in phosphate buffered saline and pH adjusted to 7.4) containing protease and phosphatase inhibitors. […] Protein concentration was quantified using the BCA method. […] Membranes were then washed and incubated with LiCOR secondary antibodies (1:10,000) and visualized and quantitated using LiCOR Odyssey. […] Data are expressed as mean±SEM (n=3 independent experiments).

HUVEC = experiment: In vitro ATP release assay (luciferin:luciferase), HUVEC; assay type: cell-based, human; settings: HUVEC
Protocol: (§1) In vitro Human arterial and venous ECs were seeded in 24-well plates pre-coated with 0.2% gelatin and grown to confluency. On the day of experiment, the media was removed from each well and cells were carefully washed twice with warm serum free basal EC medium supplemented with 1% BSA. Cells were then incubated in 300 μL of fresh basal EC medium supplemented with 1% BSA for 30 minutes at 37° C. to allow degradation of extracellular ATP released due to mechanical stimulation during washes. Endogenous ecto-nucleotidases were inhibited by incubating EC monolayers with 300 μM ARL 67156 (Tocris) for 30 minutes at 37° C. Cells were then stimulated with recombinant human TNFα (R&D Systems). For dose response experiments, ECs were incubated with 0.1, 1, 5, 10, 50, or 100 ng/mL recombinant TNFα for 30 minutes at 37° C. For time-course experiments, ECs were stimulated with 10 ng/mL recombinant TNFα for different time points up to 1 hour. In experiments where pharmacological inhibitors were employed, ECs were incubated with antagonists in parallel with ARL 67156 for 30 minutes. To inhibit TNFR1, ECs were incubated with the peptide antagonist of the receptor WP9QY (10 μM; Anaspec). […] Cx hemichannels were inhibited with lanthanum (La^3+; 100 μM; Sigma) and Panx1 channels were blocked with carbenoxolone (CBX; 50 μM; Sigma) and the inhibitory peptide ^10panx1 (200 μM; Genscript). […] The role of caspase activation was assessed by inhibition with the pan-caspase blocker Q-VD-OPh (100 μM; Sigma). Following stimulation with TNFα or vehicle, 150 μL of the cell supernatant was collected and immediately placed into pre-chilled 1.5 mL Eppendorf tubes on ice. All samples were centrifuged at 10,000×g for 5 minutes and 50 μL of each sample was transferred to a white, opaque 96-well plate. Using a FluoStar Omega luminometer, 50 μL of luciferin:luciferase reagent (ATP bioluminescence assay kit HSII; Roche) was injected into each well and luminescence was recorded following a 5s orbital mix. ATP concentration in each sample was calculated from a standard curve for all experiments. Data are presented as a % change in ATP release from baseline (i.e. unstimulated cells) and expressed as mean±SEM (n=5 independent experiments with triplicate measurements).

HSaVEC = experiment: In vitro ATP release assay (luciferin:luciferase), HSaVEC; assay type: cell-based, human; settings: HSaVEC
Protocol: as §1

Cx43 hemichannels = experiment: Cell surface biotinylation after BFA, Cx43; assay type: cell-based, human; settings: HUVEC and HSaVEC; BFA 5 μg/mL, 5 hour
Protocol: (§2) Cell surface biotinylation was performed as described previously^15. To deplete Cx43 hemichannels from the EC plasma membrane, venous and arterial ECs were grown to confluency in 6-well plates (Western blotting) or 24-well plates (ATP release) and treated with the vesicular exocytosis inhibitor brefeldin A (BFA; 5 μg/mL) for 5 hours at 37° C. Cells were washed once with cold 1× PBS and incubated with cold DMEM (without FBS) and 50 μM CBX at 4° C. for 30 minutes. CBX was added to prevent biotin from passing through Panx1 channels, which may label intracellular proteins. Cells were washed with PBS and incubated at 4° C. for 1 hour in cold PBS (1.5 mL/dish) containing EZ-link-sulfo-NHS-LC-biotin (1 mg/mL) and CBX (50 μM). The cells were washed again with PBS and lysed in PBS-T (PBS+0.5-1% Triton-X 100) containing protease inhibitors. Total protein was quantified using the BCA assay and equal amounts of protein were incubated with Streptavidin-agarose beads for 2 hours at 4° C. to pull down biotinylated (cell surface) proteins. Beads were then washed 5 times with 1× PBS-T, pelleted by centrifugation and proteins eluted by incubation with 5x sample buffer. Eluted proteins were subjected to SDS-PAGE and Western blotting for detection of Cx43 and Panx1.

Panx1 = experiment: Cell surface biotinylation after BFA, Panx1; assay type: cell-based, human; settings: HUVEC and HSaVEC; BFA 5 μg/mL, 5 hour
Protocol: as §2

[1] = BFA 5 μg/mL for 5 hours, TNFα 10 ng/mL 30 min

| SMILES | VCAM1 upregulation in Panx1 KO mice venules (VCAM1) | TNFα-induced ATP release after Cx hemichannel depletion (HUVEC; [1]) | effect of inhibitor on TNFα-induced ATP release (HUVEC; antagonist 30 min, WP9QY 10 μM, La3+ 100 μM, BFA 5 μg/mL, RuR 20 μM, PP2/PP3 10 μM, Q-VD-OPh 100 μM) | TNFα-induced ATP release after Cx hemichannel depletion (HSaVEC; [1]) | effect of inhibitor on TNFα-induced ATP release (HSaVEC; antagonist 30 min, WP9QY 10 μM, BFA 5 μg/mL, RuR 20 μM, PP2/PP3 10 μM) | expression of Cx43 at the EC surface (Cx43 hemichannels) | expression of Panx1 at the EC surface (Panx1) |
| --- | --- | --- | --- | --- | --- | --- | --- |
| Nc1ncnc2c1ncn2[C@@H]1O[C@H](COP(=O)(O)OP(=O)(O)OP(=O)(O)O)[C@@H](O)[C@H]1O [ATP, adenosine 5′ triphosphate] | rescued |  |  |  |  |  |  |
| C[C@H]1CCC/C=C/[C@@H]2C[C@H](O)C[C@H]2[C@H](O)/C=C/C(=O)O1 [BFA, brefeldin A] |  | unaffected | ruled out the involvement | unaffected | ruled out the involvement | decreased | without significantly altering |
